ChEMBL document CHEMBL4818998, “Melatonin derivatives combat with inflammation-related cancer by targeting the Main Culprit STAT3” (Eur J Med Chem, 2021)
Calls of active or inactive are those of the source. The rule behind the calls is not given here.

What was measured:
[1] = target: Signal transducer and activator of transcription 3 (Homo sapiens) (UniProt P40763); assay: Inhibition of STAT3 in human MGC-803 cells assessed as inhibition of nuclear translocation of STAT3 at 10 uM measured after 3 hrs by Hoechst/fluorochrome-conjugated antibody staining based confocal laser microscopy; format: cell-based
HCT-116 [2] = assay: Induction of apoptosis in human HCT-116 cells assessed as plasmatorrhexis at 2.5 to 15 uM measured after 48 hrs by Giemsa staining method; format: functional, cell-based; conditions: dose 2.5-15 µM
HCT-116 [3] = assay: Induction of apoptosis in human HCT-116 cells assessed as formation of apoptotic bodies at 2.5 to 15 uM measured after 48 hrs by Giemsa staining method; format: functional, cell-based; conditions: dose 2.5-15 µM
HCT-116 [4] = assay: Induction of apoptosis in human HCT-116 cells assessed as viable cells at 5 uM measured after 48 hrs by Annexin V-FITC/PI staining based flow cytometry (reference value: 94.9%); format: functional; conditions: read-out: Activity
HCT-116 [5] = assay: Induction of apoptosis in human HCT-116 cells assessed as necrotic cells at 10 uM measured after 48 hrs by Annexin V-FITC/PI staining based flow cytometry (reference value: 1.5%); format: functional
AGS = assay: Antiproliferative activity against human AGS cells assessed as inhibition of cell proliferation measured after 72 hrs by MTT assay; format: functional, cell-based
[6] = Observed apparent oral clearance in Sprague-Dawley rat at 100 mg/kg measured for 24 hrs by LC-MS analysis; format: ADME, organism-based; conditions: in vivo
HCT-116 [7] = assay: Antimetastatic activity against human HCT-116 cells assessed as inhibition of cell migration measured after 36 hrs by transwell assay; format: functional, cell-based; conditions: dose 2.5-15 µM
HCT-116 [8] = assay: Induction of apoptosis in human HCT-116 cells assessed as late apoptotic cells at 5 uM measured after 48 hrs by Annexin V-FITC/PI staining based flow cytometry (reference value: 1.42%); format: functional
[9] = Ratio of AUC (0 to t) to observed AUC (0 to infinity) in Sprague-Dawley rat at 100 mg/kg, ig measured for 24 hrs by LC-MS analysis; format: ADME, organism-based; conditions: in vivo, po
[10] = Cytotoxicity against LPS-stimulated mouse RAW264.7 cells assessed as cell viability at 5 to 20 microM measured after 24 hrs; format: cell-based; conditions: LPS-stimulated RAW264.7 cells, dose 5-20 µM, read-out: Activity
HCT-116 [11] = assay: Induction of apoptosis in human HCT-116 cells assessed as early apoptotic cells at 10 uM measured after 48 hrs by Annexin V-FITC/PI staining based flow cytometry (reference value: 2.14%); format: functional
HCT-116 [12] = assay: Induction of apoptosis in human HCT-116 cells assessed as late apoptotic cells at 20 uM measured after 48 hrs by Annexin V-FITC/PI staining based flow cytometry (reference value: 1.42%); format: functional
HCT-116 [13] = assay: Induction of apoptosis in human HCT-116 cells assessed as late apoptotic cells at 10 uM measured after 48 hrs by Annexin V-FITC/PI staining based flow cytometry (reference value: 1.42%); format: functional
[14] = AUC (0 to t) in Sprague-Dawley rat at 100 mg/kg, ig measured for 24 hrs by LC-MS analysis; format: ADME, organism-based; design: time 24 hrs, dose 100 mg/kg; conditions: in vivo, po
MGC-803 [15] = assay: Antimetastatic activity against human MGC-803 cells assessed as inhibition of cell invasion measured after 24 hrs by transwell assay; format: functional, cell-based; conditions: dose 2.5-15 µM
HCT-116 [16] = assay: Induction of apoptosis in human HCT-116 cells assessed as early apoptotic cells at 2.5 uM measured after 48 hrs by Annexin V-FITC/PI staining based flow cytometry assay (reference value: 2.14%); format: functional
RAW264.7 [17] = assay: Anti-inflammatory activity against mouse RAW264.7 cells assessed as decrease in LPS-induced TNF-alpha secretion measured after 24 hrs by ELISA; format: functional, cell-based; conditions: dose 5-20 µM
[18] = target: Signal transducer and activator of transcription 3 (Homo sapiens) (UniProt P40763); assay: Inhibition of STAT3 in human HCT-116 cells assessed as decrease in Bcl-2 expression at 2.5 to 10 uM measured after 48 hrs by western blot assay; format: cell-based; conditions: dose 2.5-10 µM
HCT-116 [19] = assay: Induction of apoptosis in human HCT-116 cells assessed as necrotic cells at 2.5 uM measured after 48 hrs by Annexin V-FITC/PI staining based Flowcytometry assay (reference value: 1.5%); format: functional
[20] = target: Signal transducer and activator of transcription 3 (Homo sapiens) (UniProt P40763); assay: Inhibition of STAT3 in human MGC-803 cells assessed as decrease in Bcl-2 expression at 4 to 16 uM measured after 48 hrs by western blot assay; format: cell-based; conditions: dose 4-16 µM
HCT-116 [21] = assay: Induction of apoptosis in human HCT-116 cells assessed as upregulation of Bax expression at 2.5 to 10 uM measured after 48 hrs by western blot assay; format: functional, cell-based; conditions: dose 2.5-10 µM
MCF7 = assay: Antiproliferative activity against human MCF7 cells assessed as inhibition of cell proliferation measured after 72 hrs by MTT assay; format: functional, cell-based; conditions: MCF7, 72 h
HCT-116 [22] = assay: Induction of apoptosis in human HCT-116 cells assessed as viable cells at 2.5 uM measured after 48 hrs by Annexin V-FITC/PI staining based flow cytometry assay (reference value: 94.9%); format: functional; conditions: read-out: Activity
HCT-116 [23] = assay: Induction of apoptosis in human HCT-116 cells assessed as increase in apoptotic cells with twinkling cell nuclei at 1.25 to 10 uM measured after 48 hrs by Hoechst 33342 staining based light blue fluorescence analysis; format: functional; conditions: dose 1.25-10 µM
MGC-803 [24] = assay: Induction of cell cycle arrest in human MGC-803 cells at 2.5 to 20 uM measured after 48 hrs by propidium iodide staining based flow cytometry analysis; format: functional; conditions: dose 2.5-20 µM
RAW264.7 [25] = assay: Anti-inflammatory activity against mouse RAW264.7 cells assessed as decrease in LPS-induced IL-6 secretion measured after 24 hrs by ELISA; format: functional, cell-based; conditions: dose 5-20 µM
HCT-116 [26] = assay: Induction of ROS generation in human HCT-116 cells at 2.5 to 15 uM measured after 36 hrs by DCFH-DA staining based fluorescence microscopic analysis; format: functional, cell-based; conditions: dose 2.5-15 µM
A549 = assay: Antiproliferative activity against human A549 cells assessed as inhibition of cell proliferation measured after 72 hrs by MTT assay; format: functional, cell-based; conditions: A549, 72 h
HCT-116 [27] = assay: Induction of apoptosis in human HCT-116 cells assessed as downregulation of cytochrome C expression at 2.5 to 10 uM measured after 48 hrs by western blot assay; format: functional, cell-based; conditions: dose 2.5-10 µM
HCT-116 [28] = assay: Induction of apoptosis in human HCT-116 cells assessed as early apoptotic cells at 5 uM measured after 48 hrs by Annexin V-FITC/PI staining based flow cytometry (reference value: 2.14%); format: functional
HCT-116 [29] = assay: Inhibition of clonogenicity in human HCT-116 cells assessed as reduction in colony formation measured after 9 days by crystal violet staining based analysis; format: functional, cell-based; conditions: dose 1.25-10 µM, time 9.0 day
MGC-803 [30] = assay: Cytotoxicity against human MGC-803 cells assessed as reduction in cell viability at <=10 uM measured after 48 hrs by CCK8 assay; format: cell-based; conditions: mgc-803, 48 h
[31] = target: Signal transducer and activator of transcription 3 (Homo sapiens) (UniProt P40763); assay: Inhibition of STAT3 in human HCT-116 cells assessed as inhibition of nuclear translocation of STAT3 at 10 uM measured after 3 hrs by Hoechst/fluorochrome-conjugated antibody staining based confocal laser microscopy; format: cell-based
HCT-116 [32] = assay: Antiproliferative activity against human HCT-116 cells assessed as inhibition of cell proliferation measured after 72 hrs by MTT assay; format: functional, cell-based; conditions: HCT-116, 72 h
HCT-116 [33] = assay: Antimetastatic activity against human HCT-116 cells assessed as inhibition of cell invasion measured after 36 hrs by transwell assay; format: functional, cell-based; conditions: dose 2.5-15 µM

Chain of Signal transducer and activator of transcription 3 (Homo sapiens) (P40763 whole entry): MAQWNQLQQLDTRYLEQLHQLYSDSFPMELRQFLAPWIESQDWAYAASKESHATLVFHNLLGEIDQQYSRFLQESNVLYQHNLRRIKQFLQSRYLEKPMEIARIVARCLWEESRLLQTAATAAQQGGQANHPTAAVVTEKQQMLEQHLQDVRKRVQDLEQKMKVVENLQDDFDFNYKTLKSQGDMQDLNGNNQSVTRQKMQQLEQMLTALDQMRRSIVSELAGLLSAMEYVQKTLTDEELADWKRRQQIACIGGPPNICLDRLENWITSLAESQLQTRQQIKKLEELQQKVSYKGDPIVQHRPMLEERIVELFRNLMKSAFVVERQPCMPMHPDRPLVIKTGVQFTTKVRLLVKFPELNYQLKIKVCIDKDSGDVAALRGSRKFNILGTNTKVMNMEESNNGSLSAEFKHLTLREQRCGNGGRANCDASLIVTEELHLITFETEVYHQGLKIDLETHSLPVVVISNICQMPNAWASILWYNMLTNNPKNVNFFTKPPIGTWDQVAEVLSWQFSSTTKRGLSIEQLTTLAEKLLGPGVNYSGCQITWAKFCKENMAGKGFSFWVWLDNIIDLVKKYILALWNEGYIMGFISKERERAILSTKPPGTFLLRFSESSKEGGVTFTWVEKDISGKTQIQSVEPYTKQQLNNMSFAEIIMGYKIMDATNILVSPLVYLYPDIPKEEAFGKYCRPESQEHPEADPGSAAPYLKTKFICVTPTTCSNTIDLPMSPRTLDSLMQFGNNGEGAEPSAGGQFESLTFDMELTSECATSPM

## Cc1c(Cl)cccc1Nc1ccccc1C(=O)NCCc1c[nH]c2ccccc12
[1]
  inhibition: Active
HCT-116 [2]
  Activity: Active
HCT-116 [3]
  Activity: Active
HCT-116 [4]
  viability at 5 µM: 87.8%
HCT-116 [5]
  Activity: 2.42%
AGS
  IC50: 9.12 µM
[6]
  CL/F: 51.75 (mg/kg)/(microg/ml)/hr
HCT-116 [7]
  Activity: Dose-Dependent Effect
HCT-116 [8]
  Activity: 3.94%
[9]
  Ratio AUC: 0.87
[10]
  viability at 24 h: > 80%
HCT-116 [11]
  Activity: 33%
HCT-116 [12]
  Activity: 8.95%
HCT-116 [13]
  Activity: 6.12%
[14]
  AUC(0-t) at 24 h: 1670 ng·h/mL
MGC-803 [15]
  Activity: Dose-Dependent Effect
HCT-116 [16]
  Activity: 3.48%
RAW264.7 [17]
  Activity: Dose-Dependent Effect
[18]
  inhibition: Active
HCT-116 [19]
  Activity: 2.07%
[20]
  inhibition: Active
HCT-116 [21]
  Activity: Active
MCF7
  IC50: 12.8 µM
HCT-116 [22]
  viability at 2.5 µM: 91.3%
HCT-116 [23]
  Activity: Active
MGC-803 [24]
  Activity: inactive
RAW264.7 [25]
  Activity: Dose-Dependent Effect
HCT-116 [26]
  Activity: Active
A549
  IC50: 18.6 µM
HCT-116 [27]
  Activity: Active
HCT-116 [28]
  Activity: 5.44%
HCT-116 [29]
  inhibition: Dose-Dependent Effect
MGC-803 [30]
  Activity: Non-Toxic
[31]
  inhibition: Active
HCT-116 [32]
  IC50: 8.42 µM
HCT-116 [33]
  Activity: Dose-Dependent Effect
